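Each compound was tested at five concentrations against cells in 96-well plates for 48 hours. The concentration for 50% growth inhibition is given as GI50. The concentration for full growth arrest is given as TGI.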
How the values were obtained:
Assay in all cases: inhibition of tumour cell growth, NCI panel, 48 h
[1] = tested on: HOP-18 NSCLC
[2] = tested on: NCI-H522 lung
[3] = tested on: SF-295 CNS
[4] = tested on: HL-60(TB) leukemia
[5] = tested on: MOLT-4 leukemia
[6] = tested on: LXFL 529 NSCLC
[7] = tested on: NCI-H460 lung
[8] = tested on: SR leukemia
[9] = tested on: DMS 273 small cell lung
[10] = tested on: KM20L2 colon
[11] = tested on: OVCAR-4 ovarian
[12] = tested on: HCT-15 colon

O=C(CSc1nc(-c2ccccc2)c(-c2ccccc2)[nH]1)N/N=C/c1ccc(O)cc1
TGI [1]: > 100 µM | TGI [2]: 48.6 µM | TGI [3]: 57.4 µM | TGI [4]: 62.3 µM | TGI [5]: 70.1 µM | TGI [6]: 99.5 µM | TGI [7]: 44.8 µM | TGI [8]: > 100 µM | TGI [9]: 48.3 µM | TGI [10]: 55.8 µM

COc1c2c(c3ccccc3c1O)C1C=CC2C1 (configuration not stated)
TGI [1]: 28.5 µM | TGI [2]: 29.3 µM | TGI [5]: 47.2 µM | TGI [11]: 28.7 µM | TGI [6]: 14.7 µM | TGI [7]: 34 µM | TGI [8]: 68.4 µM | TGI [9]: 30.3 µM | TGI [10]: 45.7 µM | TGI [12]: 22 µM

COC(=O)c1ccc(C)cc1CC1Cc2ccc(C)cc2C1=O (configuration not stated)
TGI [2]: 5.48 µM | TGI [3]: 96.7 µM | TGI [4]: 10.7 µM | TGI [5]: 26.4 µM | TGI [11]: 89.5 µM | TGI [7]: 31.3 µM | TGI [8]: 8.68 µM | TGI [12]: 13.1 µM

CCOC(=O)NC(OC)(C(F)(F)F)C(F)(F)F
TGI [2]: > 100 µM | TGI [3]: > 100 µM | TGI [4]: > 100 µM | TGI [5]: > 100 µM | TGI [11]: > 100 µM | TGI [7]: > 100 µM | TGI [8]: > 100 µM | TGI [12]: > 100 µM

O=C(O)c1ccc(C2=Cc3cc(Cl)ccc3OC2)cc1
TGI [1]: > 100 µM | TGI [2]: > 100 µM | TGI [3]: > 100 µM | TGI [4]: > 100 µM | TGI [5]: > 100 µM | TGI [6]: > 100 µM | TGI [7]: > 100 µM | TGI [8]: > 100 µM | TGI [9]: > 100 µM | TGI [10]: > 100 µM | TGI [12]: > 100 µM

CC(=O)Oc1c2c(c3n(c1=O)CCCC3)C(=O)N(c1ccccc1)C2=O
TGI [2]: > 100 µM | TGI [3]: > 100 µM | TGI [4]: > 100 µM | TGI [5]: > 100 µM | TGI [11]: > 100 µM | TGI [7]: > 100 µM | TGI [8]: > 100 µM | TGI [12]: > 100 µM

COc1ccc2c3c([nH]c2c1)CCN(CCCC(=O)c1ccc(F)cc1)C3
TGI [2]: 42.8 µM | TGI [3]: 29.4 µM | TGI [4]: 33.2 µM | TGI [5]: 36.2 µM | TGI [11]: 32.2 µM | TGI [7]: 36.4 µM | TGI [8]: 36.6 µM | TGI [12]: 36.7 µM

COC(=O)N[C@H](C(=O)O)C(C)O[Si](C)(C)C(C)(C)C (some centres not stated)
TGI [2]: > 100 µM | TGI [3]: > 100 µM | TGI [4]: > 100 µM | TGI [5]: > 100 µM | TGI [11]: > 100 µM | TGI [7]: > 100 µM | TGI [8]: > 100 µM | TGI [12]: > 100 µM

Cc1cc(S(=O)(=O)Nc2nnc3cnc4ccccc4n23)c(S)cc1Cl
TGI [2]: > 100 µM | TGI [3]: > 100 µM | TGI [4]: > 100 µM | TGI [5]: > 100 µM | TGI [11]: > 100 µM | TGI [7]: > 100 µM | TGI [8]: > 100 µM | TGI [12]: > 100 µM

NC(CCOCCP(=O)(O)O)C(=O)O (configuration not stated)
TGI [2]: > 100 µM | TGI [3]: > 100 µM | TGI [4]: > 100 µM | TGI [5]: > 100 µM | TGI [11]: > 100 µM | TGI [7]: > 100 µM | TGI [8]: > 100 µM | TGI [12]: > 100 µM

COc1cc(OC)cc(-c2n/c(=C\c3c(O)[nH]c4ccc(OC)cc34)cc3c2=Nc2ccccc2-3)c1
GI50 [2]: 17.8 µM | TGI [2]: 37.2 µM | GI50 [3]: 14.4 µM | TGI [3]: 34 µM | GI50 [4]: 16.6 µM | TGI [4]: 36.2 µM | GI50 [5]: 2560 nM | TGI [5]: 6.36 µM | GI50 [11]: 2210 nM | TGI [11]: 5.21 µM | GI50 [7]: 2360 nM | TGI [7]: 5.62 µM | GI50 [8]: 2760 nM | TGI [8]: 10.6 µM | GI50 [12]: 3.85 µM | TGI [12]: 15 µM

CN(C)c1ccc(/C=C(\NC(=O)c2ccccc2)C2=NC(CCC(=O)O)C(=O)O2)cc1 (configuration not stated)
TGI [2]: 49.1 µM | TGI [3]: > 50 µM | TGI [4]: > 50 µM | TGI [5]: > 50 µM | TGI [11]: > 50 µM | TGI [7]: > 50 µM | TGI [8]: > 50 µM | TGI [12]: > 50 µM

C[C@@H]1C(=O)C[C@H]2C(C)(C)CCC[C@]2(C)[C@@]1(O)CCc1ccoc1
TGI [2]: > 100 µM | TGI [3]: > 100 µM | TGI [4]: > 100 µM | TGI [5]: > 100 µM | TGI [11]: > 100 µM | TGI [7]: > 100 µM | TGI [8]: > 100 µM | TGI [12]: > 100 µM

O=C1CC[C@@]2(O)[C@H]3Cc4ccc(-c5ccccc5)c5c4[C@@]2(CCN3CC2CC2)[C@H]1O5
TGI [2]: 30.1 µM | TGI [3]: 33.6 µM | TGI [4]: 37.3 µM | TGI [5]: 43.5 µM | TGI [11]: > 100 µM | TGI [7]: 35.5 µM | TGI [8]: > 100 µM | TGI [12]: 41.2 µM

Nc1nc(Cl)cc(NC2(CO)CCC2)n1
TGI [2]: > 100 µM | TGI [3]: > 100 µM | TGI [4]: > 100 µM | TGI [5]: > 100 µM | TGI [11]: > 100 µM | TGI [7]: > 100 µM | TGI [8]: > 100 µM | TGI [12]: > 100 µM

C=C(NC(=O)C(=C)NC(=O)c1csc(C2=NC3c4csc(n4)C4NC(=O)c5csc(n5)C(C(C)(O)C(C)O)NC(=O)C5CSC(=N5)/C(=C/C)NC(=O)C(C(C)O)NC(=O)c5csc(n5)C3(CC2)NC(=O)C(C)NC(=O)C(=C)NC(=O)C(C)NC(=O)C(C(C)CC)NC2C=Cc3c(C(C)O)cc(nc3C2O)C(=O)OC4C)n1)C(N)=O (configuration not stated)
TGI [1]: 16.8 µM | TGI [2]: 1.15 µM | TGI [3]: 12.8 µM | TGI [4]: > 100 µM | TGI [11]: > 100 µM | TGI [6]: 1.65 µM | TGI [7]: 4.39 µM | TGI [9]: 2.8 µM | TGI [10]: 10.7 µM | TGI [12]: > 34 µM

NC1=NS(=O)(=O)Nc2nc(-c3ccccc3)[nH]c21
TGI [1]: > 100 µM | TGI [2]: > 100 µM | TGI [3]: > 100 µM | TGI [4]: > 100 µM | TGI [5]: > 100 µM | TGI [11]: > 100 µM | TGI [6]: > 100 µM | TGI [7]: > 100 µM | TGI [8]: > 100 µM | TGI [9]: > 100 µM | TGI [10]: > 100 µM | TGI [12]: > 100 µM

COC(=O)c1c(O)ccc2[nH]c3c(O)c4ccccc4cc3c12
TGI [2]: 53.6 µM | TGI [3]: 38.1 µM | TGI [4]: 37.5 µM | TGI [5]: > 100 µM | TGI [11]: 78.4 µM | TGI [7]: 63.5 µM | TGI [8]: > 100 µM | TGI [12]: 48.1 µM

CCCCCCCCCCCCCCC(O)C[N+](C)(CCO)CCO (configuration not stated)
TGI [2]: 5.03 µM | TGI [3]: 9.96 µM | TGI [4]: 2.71 µM | TGI [5]: 9.13 µM | TGI [11]: 17 µM | TGI [7]: 6.56 µM | TGI [8]: 10.1 µM | TGI [12]: 22 µM

CC(=O)Oc1c(-c2ccccc2)sc2ccccc12
TGI [2]: 51.3 µM | TGI [3]: 40.3 µM | TGI [4]: 39.6 µM | TGI [5]: 40.7 µM | TGI [11]: 73.4 µM | TGI [7]: 27.7 µM | TGI [8]: 29.4 µM | TGI [12]: 37.1 µM

O=C(CCC=C(S(=O)(=O)c1ccccc1)S(=O)(=O)c1ccccc1)c1ccccc1
TGI [2]: 9.45 µM | TGI [3]: 60.9 µM | TGI [4]: 5.2 µM | TGI [5]: > 100 µM | TGI [11]: 63.6 µM | TGI [7]: 33.8 µM | TGI [8]: 82.6 µM | TGI [12]: 20.8 µM

CCOC(=O)Nc1ccc2c(c1)c(CCCCCCc1nc3ccccc3c3ccc(NC(=O)OCC)cc13)nc1ccccc12
TGI [2]: 60.5 µM | TGI [3]: > 100 µM | TGI [4]: > 100 µM | TGI [5]: > 100 µM | TGI [11]: 74.2 µM | TGI [7]: > 100 µM | TGI [8]: > 100 µM | TGI [12]: > 100 µM

O=C(c1ccccc1)C1S(=O)(=O)OCCOS1(=O)=O
TGI [2]: > 100 µM | TGI [3]: > 100 µM | TGI [4]: > 100 µM | TGI [11]: > 100 µM | TGI [6]: > 100 µM | TGI [8]: > 100 µM | TGI [9]: > 100 µM

COc1ccc([C@@H]2CC(=O)N2)cc1
TGI [1]: > 100 µM | TGI [2]: > 100 µM | TGI [3]: > 100 µM | TGI [4]: > 100 µM | TGI [5]: > 100 µM | TGI [11]: > 100 µM | TGI [6]: > 100 µM | TGI [7]: > 100 µM | TGI [8]: > 100 µM | TGI [9]: > 100 µM | TGI [10]: > 100 µM | TGI [12]: > 100 µM

CCOC(=O)C(Cc1c[nH]c2cc([N+](=O)[O-])ccc12)NS(=O)(=O)c1ccc2ccccc2c1 (configuration not stated)
TGI [1]: > 100 µM | TGI [2]: 30.4 µM | TGI [3]: 32.5 µM | TGI [4]: 48.5 µM | TGI [5]: > 100 µM | TGI [11]: 28 µM | TGI [6]: 32.5 µM | TGI [7]: 35.5 µM | TGI [8]: 68.2 µM | TGI [9]: 32.1 µM | TGI [10]: 33.9 µM | TGI [12]: 41.2 µM

Cc1ccc(-c2nc(N/N=C/c3ccc(O)cc3)c3ccccc3n2)cc1
TGI [2]: 30.1 µM | TGI [3]: 89.5 µM | TGI [4]: > 100 µM | TGI [5]: > 100 µM | TGI [11]: 16.2 µM | TGI [7]: 50.1 µM | TGI [8]: > 100 µM | TGI [12]: > 100 µM

C=C1C(O)C[C@H](OC(C)=O)[C@]2(C)C1C(OC(C)=O)[C@]1(C(C)(C)O)CC(O)C(C)=C1[C@@H](OC(=O)c1ccccc1)C2OC(C)=O (some centres not stated)
TGI [2]: > 10 µM | TGI [3]: > 10 µM | TGI [4]: > 10 µM | TGI [5]: > 10 µM | TGI [11]: > 10 µM | TGI [7]: > 10 µM | TGI [8]: > 10 µM | TGI [12]: > 10 µM

O=C(N=c1ccc2nc(=O)[nH]n(O)c-2c1)C(F)(F)F
TGI [2]: > 100 µM | TGI [3]: > 100 µM | TGI [4]: > 100 µM | TGI [5]: > 100 µM | TGI [11]: > 100 µM | TGI [7]: > 100 µM | TGI [8]: > 100 µM | TGI [12]: > 100 µM
